Data as given in the supplement of paper PMC10307832.

Tests used:
Assay in all cases: relative viability (nuclei count vs DMSO), 5 days (fraction); higher = more cells survive
CAL-12T = tested on: CAL-12T
Method in brief: (§1)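 Each reported value is a median over duplicate plates. It expresses relative viability: treated-well nuclei count divided by vehicle-well nuclei count. Lung cancer cell lines in 1536-well plates were dosed by pin tool a day after seeding, alone with one drug or with a fixed anchor-drug dose plus five library-drug doses (not always all listed) in √10 steps, and nuclei were counted after 5 days.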

COR-L 105 = tested on: COR-L 105
Method in brief: as §1

H3255 = tested on: H3255
Method in brief: as §1

HARA = tested on: HARA
Method in brief: as §1

HCC-15 = tested on: HCC-15
Method in brief: as §1

HCC-366 = tested on: HCC-366
Method in brief: as §1

LC-2-ad = tested on: LC-2-ad
Method in brief: as §1

LU99A = tested on: LU99A
Method in brief: as §1

NCI-H1395 = tested on: NCI-H1395
Method in brief: as §1

NCI-H1666 = tested on: NCI-H1666
Method in brief: as §1

NCI-H1734 = tested on: NCI-H1734
Method in brief: as §1

NCI-H1944 = tested on: NCI-H1944
Method in brief: as §1

NCI-H1975 = tested on: NCI-H1975
Method in brief: as §1

NCI-H1993 = tested on: NCI-H1993
Method in brief: as §1

NCI-H2228 = tested on: NCI-H2228
Method in brief: as §1

NCI-H3122 = tested on: NCI-H3122
Method in brief: as §1

NCI-H520 = tested on: NCI-H520
Method in brief: as §1

NCI-H647 = tested on: NCI-H647
Method in brief: as §1

NCI-H661 = tested on: NCI-H661
Method in brief: as §1

NCI-H838 = tested on: NCI-H838
Method in brief: as §1

PC-14 = tested on: PC-14
Method in brief: as §1

PC-3 [JPC-3] = tested on: PC-3 [JPC-3]
Method in brief: as §1

SK-LU-1 = tested on: SK-LU-1
Method in brief: as §1

Cc1cnc(-c2cnc(NCCNc3ccc(C#N)cn3)nc2-c2ccc(Cl)cc2Cl)[nH]1 + CC(=O)Nc1cccc(-n2c(=O)n(C3CC3)c(=O)c3c(Nc4ccc(I)cc4F)n(C)c(=O)c(C)c32)c1 [Trametinib] (partner 0.02 µM)
relative viability (CAL-12T; first compound 0.08 µM): 0.357
relative viability (CAL-12T; first compound 0.253 µM): 0.306
relative viability (CAL-12T; first compound 0.8 µM): 0.333
relative viability (CAL-12T; first compound 2.53 µM): 0.348
relative viability (COR-L 105; first compound 0.08 µM): 0.481
relative viability (COR-L 105; first compound 0.253 µM): 0.383
relative viability (COR-L 105; first compound 0.8 µM): 0.324
relative viability (COR-L 105; first compound 2.53 µM): 0.415
relative viability (H3255; first compound 0.08 µM): 0.794
relative viability (H3255; first compound 0.253 µM): 0.583
relative viability (H3255; first compound 0.8 µM): 0.663
relative viability (H3255; first compound 2.53 µM): 0.668
relative viability (HARA; first compound 0.08 µM): 0.746
relative viability (HARA; first compound 0.253 µM): 0.68
relative viability (HARA; first compound 0.8 µM): 0.623
relative viability (HARA; first compound 2.53 µM): 0.708
relative viability (HCC-15; first compound 0.08 µM): 0.449
relative viability (HCC-15; first compound 0.253 µM): 0.391
relative viability (HCC-15; first compound 0.8 µM): 0.383
relative viability (HCC-15; first compound 2.53 µM): 0.422
relative viability (HCC-366; first compound 0.08 µM): 0.397
relative viability (HCC-366; first compound 0.253 µM): 0.308
relative viability (HCC-366; first compound 0.8 µM): 0.292
relative viability (HCC-366; first compound 2.53 µM): 0.326
relative viability (LC-2-ad; first compound 0.08 µM): 0.998
relative viability (LC-2-ad; first compound 0.8 µM): 0.953
relative viability (LC-2-ad; first compound 2.53 µM): 0.863
relative viability (LU99A; first compound 0.08 µM): 0.549
relative viability (LU99A; first compound 0.253 µM): 0.556
relative viability (LU99A; first compound 0.8 µM): 0.53
relative viability (LU99A; first compound 2.53 µM): 0.534
relative viability (NCI-H1395; first compound 0.08 µM): 1.22
relative viability (NCI-H1395; first compound 0.253 µM): 0.715
relative viability (NCI-H1395; first compound 0.8 µM): 1.03
relative viability (NCI-H1395; first compound 2.53 µM): 0.924
relative viability (NCI-H1666; first compound 0.08 µM): 0.864
relative viability (NCI-H1666; first compound 0.253 µM): 0.797
relative viability (NCI-H1666; first compound 0.8 µM): 0.957
relative viability (NCI-H1666; first compound 2.53 µM): 0.821
relative viability (NCI-H1734; first compound 0.08 µM): 0.801
relative viability (NCI-H1734; first compound 0.253 µM): 0.641
relative viability (NCI-H1734; first compound 0.8 µM): 0.775
relative viability (NCI-H1734; first compound 2.53 µM): 0.72
relative viability (NCI-H1944; first compound 0.08 µM): 0.423
relative viability (NCI-H1944; first compound 0.8 µM): 0.463
relative viability (NCI-H1944; first compound 2.53 µM): 0.371
relative viability (NCI-H1975; first compound 0.08 µM): 0.35
relative viability (NCI-H1975; first compound 0.253 µM): 0.383
relative viability (NCI-H1975; first compound 0.8 µM): 0.353
relative viability (NCI-H1975; first compound 2.53 µM): 0.339
relative viability (NCI-H1993; first compound 0.08 µM): 0.506
relative viability (NCI-H1993; first compound 0.253 µM): 0.536
relative viability (NCI-H1993; first compound 0.8 µM): 0.454
relative viability (NCI-H1993; first compound 2.53 µM): 0.52
relative viability (NCI-H2228; first compound 0.08 µM): 0.526
relative viability (NCI-H2228; first compound 0.253 µM): 0.511
relative viability (NCI-H2228; first compound 0.8 µM): 0.506
relative viability (NCI-H2228; first compound 2.53 µM): 0.42
relative viability (NCI-H3122; first compound 0.08 µM): 0.262
relative viability (NCI-H3122; first compound 0.8 µM): 0.246
relative viability (NCI-H3122; first compound 2.53 µM): 0.233
relative viability (NCI-H520; first compound 0.08 µM): 0.781
relative viability (NCI-H520; first compound 0.253 µM): 0.614
relative viability (NCI-H520; first compound 0.8 µM): 0.788
relative viability (NCI-H520; first compound 2.53 µM): 0.706
relative viability (NCI-H647; first compound 0.08 µM): 0.606
relative viability (NCI-H647; first compound 0.253 µM): 0.401
relative viability (NCI-H647; first compound 0.8 µM): 0.498
relative viability (NCI-H647; first compound 2.53 µM): 0.601
relative viability (NCI-H661; first compound 0.08 µM): 0.606
relative viability (NCI-H661; first compound 0.253 µM): 0.537
relative viability (NCI-H661; first compound 0.8 µM): 0.68
relative viability (NCI-H661; first compound 2.53 µM): 0.681
relative viability (NCI-H838; first compound 0.08 µM): 0.577
relative viability (NCI-H838; first compound 0.253 µM): 0.499
relative viability (NCI-H838; first compound 0.8 µM): 0.591
relative viability (NCI-H838; first compound 2.53 µM): 0.685
relative viability (PC-14; first compound 0.08 µM): 0.961
relative viability (PC-14; first compound 0.253 µM): 0.713
relative viability (PC-14; first compound 0.8 µM): 0.904
relative viability (PC-14; first compound 2.53 µM): 0.825
relative viability (PC-3 [JPC-3]; first compound 0.08 µM): 0.75
relative viability (PC-3 [JPC-3]; first compound 0.253 µM): 0.646
relative viability (PC-3 [JPC-3]; first compound 0.8 µM): 0.774
relative viability (PC-3 [JPC-3]; first compound 2.53 µM): 0.703
relative viability (SK-LU-1; first compound 0.08 µM): 0.489
relative viability (SK-LU-1; first compound 0.253 µM): 0.61
relative viability (SK-LU-1; first compound 0.8 µM): 0.563
relative viability (SK-LU-1; first compound 2.53 µM): 0.707
